Columns and labels:
TAase = TAase activity; assay type: biochemical
[1] = tested on: platelets (ADP-induced platelet aggregation); test: ADP-induced platelet aggregation, in vitro (platelet rich plasma); assay type: cell-based; conditions: test compounds equimolar (40 μM); ADP 15 μM
From the text: Preparation of Platelet Rich Plasma for the IN VITRO Studies (7)

[2] = tested on: platelets (ADP-induced platelet aggregation); test: ADP-induced platelet aggregation, ex vivo after administration by gavage; conditions: po, suspended in water, sonicated, given by gavage, equimolar dose (40 μM), ADP 15 μM
From the text: C. Preparation of Platelet Rich Plasma for the EX VIVO Studies

[3] = tested on: intracellular nitric oxide level; test: Enhancement of intracellular nitric oxide; assay type: cell-based; conditions: equimolar (40 μM)

Row | SMILES | TAase Activity (Units) (TAase) | ADP-induced Platelet aggregation (% inhibition) IN VITRO [1] | inhibition at 40 µM [2] | Enhancement of Nitric Oxide (folds) [3]
1 | COC(=O)C(c1ccccc1Cl)N1CCc2sccc2C1 (centres unmarked) | Nil | Nil | 65% | Nil
2 | CC(=O)Oc1ccccc1C(=O)O | Nil | Nil | 55% | Nil
